From US20210087206A1, “MACROCYCLIC KINASE INHIBITORS AND THEIR USE” (TURNING POINT THERAPEUTICS, INC., priority 2017, published 2021)

Columns and labels:
[1] = target: T1, BaF3 EML4-ALK (Homo sapiens, UniProt Q9UM73); assay: Cell proliferation assay (CellTiter-Glo); format: cell-based; settings: anti-cell proliferation, 72 hours
T1 construct: The EML4-ALK gene (variant 1) was synthesized at GenScript and cloned into pCDH-CMV-MCS-EF1-Puro plasmid (System Biosciences, Inc); fused on or other part: EML4 N-terminal part (variant 1: exons 1-13, with the coiled-coil that oligomerises the fusion) fused to the intracellular part of ALK, which contains the kinase domain; Q9HC35 (Echinoderm microtubule-associated protein-like 4)
In short: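 Ba/F3 cells were lentivirally transduced with EML4-ALK variant 1 and selected for puromycin resistance and IL-3-independent growth. Proliferation was measured by CellTiter-Glo ATP luminescence to give IC50.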

[2] = system: KG-1 cell (OP2-FGFR1); assay: Cell proliferation assay (CellTiter-Glo); format: cell-based; settings: Homo sapiens, anti-cell proliferation, 72 hours
In short: (§1)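 Cells seeded 24 h, then exposed to compounds for 72 h at 37° C., 5% CO2. Proliferation read by CellTiter-Glo luminescent ATP detection; IC50 from dose-response fits.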

[3] = system: KM12 (TPM3-TRKA); assay: Cell proliferation assay (CellTiter-Glo); format: cell-based; settings: Homo sapiens, anti-cell proliferation, 72 hours
In short: as §1

[4] = amide bond; 13-membered ring; 3 steps

T1 sequence (Q9UM73 whole entry, stated change not applied, the tested form may be a part): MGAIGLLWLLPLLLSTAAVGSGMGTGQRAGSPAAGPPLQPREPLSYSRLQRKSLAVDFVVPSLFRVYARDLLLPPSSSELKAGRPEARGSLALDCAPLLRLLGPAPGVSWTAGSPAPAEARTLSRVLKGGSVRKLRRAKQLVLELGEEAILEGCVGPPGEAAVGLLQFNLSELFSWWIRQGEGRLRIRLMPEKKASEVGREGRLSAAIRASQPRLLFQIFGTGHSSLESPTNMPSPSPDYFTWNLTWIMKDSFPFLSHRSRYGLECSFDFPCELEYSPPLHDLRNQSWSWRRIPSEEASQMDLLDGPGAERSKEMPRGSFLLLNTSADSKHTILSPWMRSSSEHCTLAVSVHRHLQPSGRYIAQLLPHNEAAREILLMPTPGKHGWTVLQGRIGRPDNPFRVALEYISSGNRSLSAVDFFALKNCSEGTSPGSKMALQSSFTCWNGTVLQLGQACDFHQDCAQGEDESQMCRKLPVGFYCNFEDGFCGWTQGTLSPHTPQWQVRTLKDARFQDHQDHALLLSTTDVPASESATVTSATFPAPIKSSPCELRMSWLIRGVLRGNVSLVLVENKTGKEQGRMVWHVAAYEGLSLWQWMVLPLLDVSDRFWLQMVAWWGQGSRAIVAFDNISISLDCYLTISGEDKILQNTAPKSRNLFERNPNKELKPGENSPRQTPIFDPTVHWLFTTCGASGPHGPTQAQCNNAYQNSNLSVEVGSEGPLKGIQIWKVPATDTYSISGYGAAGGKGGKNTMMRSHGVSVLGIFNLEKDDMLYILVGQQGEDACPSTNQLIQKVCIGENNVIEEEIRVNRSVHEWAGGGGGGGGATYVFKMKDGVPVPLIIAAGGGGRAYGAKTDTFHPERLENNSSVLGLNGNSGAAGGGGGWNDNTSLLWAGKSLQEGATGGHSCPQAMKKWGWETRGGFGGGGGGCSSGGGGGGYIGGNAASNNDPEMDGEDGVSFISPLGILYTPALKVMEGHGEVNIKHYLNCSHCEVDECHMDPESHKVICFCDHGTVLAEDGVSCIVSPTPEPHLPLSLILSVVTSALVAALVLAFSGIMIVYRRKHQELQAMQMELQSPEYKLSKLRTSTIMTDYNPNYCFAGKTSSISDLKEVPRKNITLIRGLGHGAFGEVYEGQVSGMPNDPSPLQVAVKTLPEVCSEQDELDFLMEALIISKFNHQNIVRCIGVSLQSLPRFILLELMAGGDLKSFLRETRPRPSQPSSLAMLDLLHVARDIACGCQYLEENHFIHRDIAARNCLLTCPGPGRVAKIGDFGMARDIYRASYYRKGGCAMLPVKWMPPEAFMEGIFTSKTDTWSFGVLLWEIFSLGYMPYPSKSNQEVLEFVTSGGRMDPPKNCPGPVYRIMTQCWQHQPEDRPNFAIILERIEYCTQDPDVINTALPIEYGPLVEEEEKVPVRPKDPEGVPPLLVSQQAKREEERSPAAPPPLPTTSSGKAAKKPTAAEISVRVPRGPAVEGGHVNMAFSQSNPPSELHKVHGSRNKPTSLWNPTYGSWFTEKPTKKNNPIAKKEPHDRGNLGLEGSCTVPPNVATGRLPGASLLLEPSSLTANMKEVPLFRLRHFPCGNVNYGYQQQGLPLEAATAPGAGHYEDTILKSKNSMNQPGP

Row | Molecule | IC50 [1] | IC50 [2] | IC50 [3] | ring closure, isolated yield [4]
1 | C[C@@H]1COc2cn3ncc4c3nc2N1Cc1cc(F)cnc1OC[C@H](CO)NC4=O [Compound 82, (4R,13S)-8-fluoro-13-(hydroxy-methyl)-4-methyl-3,4,13,14-tetrahydro-6H-18,1-(metheno)-[1,4]oxazino[3,4-i]pyrazolo[4,3-f]pyrido[3,2-l][1,4,8,10]oxatriaza-cyclotridecin-15(12H)-one] | 657 nM | 37.3 nM | < 0.2 nM | 
2 | C[C@@H]1COc2ncc(F)cc2[C@H](C)N2c3nc4c(cnn4cc3OC[C@H]2C)C(=O)N1 [Compound 84, (4R,6S,13R)-8-fluoro-4,6,13-trimethyl-3,4,13,14-tetrahydro-6H-18,1-(metheno)[1,4]oxazino[3,4-i]pyrazolo[4,3-f]pyrido[3,2-l][1,4,8,10]oxatriazacyclotridecin-15(12H)-one] | 366 nM | 130 nM | < 0.2 nM | 
3 | C[C@@H]1COc2ncc(F)cc2CN2C[C@@H](O)COc3cn4ncc(c4nc32)C(=O)N1 [Compound 88, (4R,14R)-9-fluoro-4-hydroxy-14-methyl-4,5,14,15-tetrahydro-3H,7H-19,1-(metheno)[1,4]-oxazepino[3,4-i]pyrazolo[4,3-f]pyrido[3,2-l][1,4,8,10]oxatriaza-cyclotridecin-16(13H)-one] | 5000 nM | 3000 nM | 3.1 nM | 
4 | C[C@@H]1COc2cn3ncc4c3nc2N1Cc1cc(F)cnc1OC[C@H](O)CNC4=O [Compound 89, (7R,16R)-12-fluoro-7-hydroxy-16-methyl-5,6,7,8,16,17-hexa-hydro-4H,14H-1,19-(metheno)-[1,4]oxazino[4,3-e]pyrazolo[3,4-h]pyrido[2,3-b][1,5,7,11]oxatriaza-cyclotetradecin-4-one] | 1890 nM | 394 nM | < 0.2 nM | 
5 | COC[C@H]1COc2ncc(F)cc2CN2c3nc4c(cnn4cc3OC[C@H]2C)C(=O)N1 [Compound 92, (4R,13S)-8-fluoro-13-(methoxy-methyl)-4-methyl-3,4,13,14-tetrahydro-6H-18,1-(metheno)-[1,4]oxazino[3,4-i]pyrazolo[4,3-f]pyrido[3,2-l][1,4,8,10]oxatriaza-cyclotridecin-15(12H)-one] | 2000 nM | 328 nM | 5.7 nM | 
6 | C[C@H]1CNC(=O)c2cnn3cc4c(nc23)N(Cc2cc(F)cnc2O1)C[C@@H](F)CO4 [Compound 93, (4R,13S)-4,9-difluoro-13-methyl-4,5,14,15-tetrahydro-3H,7H-19,1-(metheno)[1,4]oxazepino[3,4-i]-pyrazolo[4,3-f]pyrido[3,2-l] [1,4,8,10]oxatriazacyclotridecin-16(13H)-one] | > 10000 nM | > 10000 nM | 189 nM | 
7 | C[C@@H]1COc2cn3ncc4c3nc2N1Cc1cc(F)cnc1O[C@H](CO)CNC4=O [Compound 98, (4R,12S)-8-fluoro-12-(hydroxymethyl)-4-methyl-3,4,13,14-tetrahydro-6H-18,1-(metheno)[1,4]oxazino[3,4-i]pyrazolo[4,3-f]pyrido[3,2-1][1,4,8,10]oxatriazacyclotridecin-15(12H)-one] | 4000 nM | 3000 nM | 13.3 nM | 
8 | C[C@@H]1COc2cn3ncc4c3nc2N(Cc2cc(F)cnc2OCCC(C)(C)NC4=O)C1 [Compound 99, (17S)-12-fluoro-6,6,17-trimethyl-5,6,7,8,17,18-hexahydro-4H,14H,16H-1,20-(metheno)[1,4]oxazepino[4,3-e]pyrazolo[3,4-h]pyrido[2,3-b][1,5,7,11]oxatriazacyclotetradecin-4-one] | 2000 nM | 1370 nM | 63.7 nM | 
9 | C[C@@H]1COc2cn3ncc4c3nc2N(Cc2cc(F)cnc2OC[C@@H](C)CNC4=O)C1 [Compound 100, (7S,17S)-12-fluoro-7,17-dimethyl-5,6,7,8,17,18-hexahydro-4H,14H,16H-1,20-(metheno)[1,4]oxazepino-[4,3-e]pyrazolo[3,4-h]pyrido-[2,3-b][1,5,7,11]oxatriaza-cyclotetradecin-4-one] | 2500 nM | 2800 nM | 72.8 nM | 
10 | (4R,13R)-8-fluoro-4,13-dimethyl-3,4,13,14-tetrahydro-6H-18,1-(metheno)[1,4]oxazino[3,4-i]pyrazolo[4,3-f]pyrido[3,2-l][1,4,8,10]oxatriazacyclotridecin-15(12H)-one |  |  |  | 86%
11 | (5R,13S)-9-fluoro-5,13-dimethyl-4,5,14,15-tetrahydro-3H,7H-19,1-(metheno)[1,4]oxazepino[3,4-i]pyrazolo[4,3-f]pyrido[3,2-l][1,4,8,10]oxatriazacyclotridecin-16(13H)-one |  |  |  | 79%

Continued by falling IC50 [1], values first:

Row | IC50 [1] | Molecule | IC50 [2] | IC50 [3] | ring closure, isolated yield [4]
12 | 349 nM | C[C@@H]1COc2cn3ncc4c3nc2N1Cc1cc(F)cnc1OCCC1(CCC1)NC4=O [Compound 96, (16′R)-12′-fluoro-16′-methyl-4′H,5′H,7′H,8′H,14′H,16′H,17′H-spiro[cyclobutane-1,6′-[9,18]-dioxa[1,2,5,10,15,20]hexaaza-[1,19](metheno)[1,4]oxazino-[4,3-e]pyrazolo[3,4-h]pyrido[2,3-b][1,5,7,11]oxatriazacyclotetra-decin]-4′-one] | 500 nM | < 0.2 nM | 
13 | 234 nM | CO[C@@H]1COc2cn3ncc4c3nc2N(Cc2cc(F)cnc2O[C@@H](C)CNC4=O)C1 [Compound 91, (4S,13S)-9-fluoro-4-methoxy-13-methyl-4,5,14,15-tetrahydro-3H,7H-19,1-(metheno)[1,4]oxazepino[3,4-i]pyrazolo[4,3-f]pyrido[3,2-1][1,4,8,10]oxatriazacyclotridecin-16(13H)-one] | 990 nM | 64.2 nM | 
14 | 139 nM | C[C@@H]1COc2ncc(F)cc2[C@@H](C)N2c3nc4c(cnn4cc3OC[C@H]2C)C(=O)N1 [Compound 83, (4R,6R,13R)-8-fluoro-4,6,13-trimethyl-3,4,13,14-tetrahydro-6H-18,1-(metheno)[1,4]oxazino[3,4-i]pyrazolo[4,3-f]pyrido[3,2-l][1,4,8,10]oxatriazacyclotridecin-15(12H)-one] | 30.2 nM | < 0.2 nM | 
15 | 134 nM | C[C@@H]1COc2cn3ncc4c3nc2N1Cc1cc(F)cnc1OC[C@H](F)CNC4=O [Compound 80, (7R,16R)-7,12-difluoro-16-methyl-5,6,7,8,16,17-hexahydro-4H,14H-1,19-(metheno)[1,4]-oxazino[4,3-e]pyrazolo[3,4-h]pyrido[2,3-b][1,5,7,11]oxa-triazacyclotetradecin-4-one] | 44.4 nM | < 0.2 nM | 
16 | 31.7 nM | C[C@@H]1COc2cn3ncc4c3nc2N1Cc1cc(F)cnc1OCC(F)(F)CNC4=O [Compound 79, (16R)-7,7,12-trifluoro-16-methyl-5,6,7,8,16,17-hexahydro-4H,14H-1,19-(metheno)[1,4]oxazino[4,3-e]pyrazolo[3,4-h]pyrido[2,3-b][1,5,7,11]oxatriazacyclotetra-decin-4-one] | 9.9 nM | < 0.2 nM | 
17 | 20.2 nM | C[C@@H]1COc2cn3ncc4c3nc2N1Cc1cc(F)cnc1OC[C@@H](C(F)F)NC4=O [Compound 97, (4R,13S)-13-(difluoromethyl)-8-fluoro-4-methyl-3,4,13,14-tetra-hydro-6H-18,1-(metheno)[1,4]-oxazino[3,4-i]pyrazolo[4,3-f]pyrido[3,2-l][1,4,8,10]oxatriaza-cyclotridecin-15(12H)-one] | 19.9 nM | < 0.2 nM | 
18 | 16.6 nM | C[C@@H]1COc2cn3ncc4c3nc2N1Cc1cc(F)cnc1O[C@H]1C[C@H](C1)NC4=O [Compound 95, (6S,8s,16R)-12-fluoro-16-methyl-5,6,7,8,16,17-hexahydro-4H,14H-6,8-methano-1,19-(metheno)[1,4]-oxazino[4,3-e]pyrazolo[3,4-h]-pyrido[2,3-b][1,5,7,11]oxatriaza-cyclotetradecin-4-one] | 14.1 nM | < 0.2 nM | 
19 | 15 nM | C[C@@H]1COc2cn3ncc4c3nc2N1Cc1cc(F)cnc1O[C@H]1CC[C@H](C1)NC4=O [Compound 87, (6R,9S,17R)-13-fluoro-17-methyl-6,7,8,9,17,18-hexahydro-15H-6,9-methano-1,20-(metheno)[1,4]-oxazino[4,3-e]pyrazolo[3,4-h]-pyrido[2,3-b][1,5,7,11]oxatriaza-cyclopentadecin-4(5H)-one] | 17.5 nM | < 0.2 nM | 
20 | 12.7 nM | C[C@@H]1COc2cn3ncc4c3nc2N1Cc1cc(F)cnc1OC[C@@H](C(F)(F)F)NC4=O [Compound 85, (4R,13S)-8-fluoro-4-methyl-13-(trifluoromethyl)-3,4,13,14-tetrahydro-6H-18,1-(metheno)-[1,4]oxazino[3,4-i]pyrazolo[4,3-f]pyridol[3,2-l][1,4,8,10]oxatriaza-cyclotridecin-15(12H)-one] | 17.3 nM | < 0.2 nM | 
21 | 7.3 nM | C[C@@H]1COc2cn3ncc4c3nc2N1Cc1cc(F)cnc1O[C@@H]1CC[C@@H](C1)NC4=O [Compound 86, (6S,9R,17R)-13-fluoro-17-methyl-6,7,8,9,17,18-hexahydro-15H-6,9-methano-1,20-(metheno)[1,4]-oxazino[4,3-e]pyrazolo[3,4-h]-pyrido[2,3-b][1,5,7,11]oxatriaza-cyclopentadecin-4(5H)-one] | 2.7 nM | < 0.2 nM | 
